Key:
Assay type in all cases: cell-based, human
[1] = test system: HCT 116 cells transduced with the PDE5A DD derived GFP constructs; experiment: Response to Vardenafil, GFP expression by FACS in HCT116; details: for MFI / Stabilization ratio with Vardenafil: 48 hours, HCT116
Summary of the method: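 HCT116 cells stably carrying lentiviral AcGFP fusions of PDE5A (535-860) mutants, sorted on mCherry, got DMSO or Vardenafil (10 μM, or 0.002–30 μM) for 48 h, and GFP MFI was read by flow cytometry. Basal expression is untreated GFP over parental autofluorescence; the stabilization ratio is treated over untreated MFI.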

[2] = test system: HCT 116 cells transduced with the PDE5A DD derived GFP constructs; experiment: Response to Tadalafil, GFP expression by FACS in HCT116; details: for MFI / Stabilization ratio with Tadalafil: 48 hours, HCT116
Summary of the method: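 HCT116 cells stably transduced (mCherry-sorted) with lentiviral PDE5A DD–AcGFP constructs, exposed to DMSO or Tadalafil 0.01–100 μM for 48 hrs. GFP mean fluorescence by FACS; stabilization ratio = ligand vs no-ligand signal, basal expression = no-ligand signal vs parental autofluorescence.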

[3] = test system: HCT116 cells transduced with the constructs; experiment: Response to Sildenafil, GFP expression by flow cytometry in HCT116; details: for MFI / Stabilization ratio with Sildenafil: 48 hours, HCT116
Summary of the method: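 HCT116 cells stably expressing AcGFP-fused destabilizing domains from a lentiviral mCherry-marked vector (sorted on mCherry) were exposed to sildenafil at 0.01–100 μM for 48 hours. GFP mean fluorescence intensity was measured by flow cytometry.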

Substance: PDE5AN (#53): N-terminal DD 535-860 of PDE5A (E536G, Q589R, C839S), SEQ ID NO. 67, fused to AcGFP
- MFI ([1]; DMSO (no Vardenafil)): 14196
- Basal (DMSO/Parental) ([1]; Table 10, GFP signal without ligand / auto fluorescence of parental HCT-116): 14.0
- Basal ([1]; Table 15, MFI with DMSO / parental HCT116, Vardenafil experiment): 7.27
- Stabilization ratio with Vardenafil ([1]; Vardenafil 0.002 μM vs DMSO): 1.0
- MFI ([1]; Vardenafil 0.002 μM): 14117
- Stabilization ratio with Vardenafil ([1]; Vardenafil 0.005 μM vs DMSO): 1.0
- MFI ([1]; Vardenafil 0.005 μM): 14485
- Stabilization ratio with Vardenafil ([1]; Vardenafil 0.014 μM vs DMSO): 1.1
- MFI ([1]; Vardenafil 0.014 μM): 15735
- Stabilization ratio with Vardenafil ([1]; Vardenafil 0.041 μM vs DMSO): 1.2
- MFI ([1]; Vardenafil 0.041 μM): 17260
- Stabilization ratio with Vardenafil ([1]; Vardenafil 0.123 μM vs DMSO): 1.8
- MFI ([1]; Vardenafil 0.123 μM): 25577
- Stabilization ratio with Vardenafil ([1]; Vardenafil 0.370 μM vs DMSO): 3.1
- MFI ([1]; Vardenafil 0.370 μM): 43744
- Stabilization ratio with Vardenafil ([1]; Vardenafil 1.111 μM vs DMSO): 5.7
- MFI ([1]; Vardenafil 1.111 μM): 81455
- Stabilization ratio with Vardenafil ([1]; Vardenafil 3.333 μM vs DMSO): 9.2
- MFI ([1]; Vardenafil 3.333 μM): 131016
- Stabilization ratio with Vardenafil ([1]; Vardenafil 10 μM vs DMSO): 12.2
- MFI ([1]; Vardenafil 10 μM): 173576
- Stabilization ratio with Vardenafil ([1]; Vardenafil 30 μM vs DMSO): 13.3
- MFI ([1]; Vardenafil 30 μM): 188519
- MFI ([2]; DMSO (no Tadalafil)): 12071
- Basal expression ([2]; Table 21, MFI with DMSO / parental HCT116, Tadalafil experiment): 9.43
- Stabilization ratio with Tadalafil ([2]; Tadalafil 0.01 μM vs DMSO): 1.0
- MFI ([2]; Tadalafil 0.01 μM): 11635
- Stabilization ratio with Tadalafil ([2]; Tadalafil 0.02 μM vs DMSO): 1.0
- MFI ([2]; Tadalafil 0.02 μM): 11690
- Stabilization ratio with Tadalafil ([2]; Tadalafil 0.05 μM vs DMSO): 1.0
- MFI ([2]; Tadalafil 0.05 μM): 12100
- Stabilization ratio with Tadalafil ([2]; Tadalafil 0.14 μM vs DMSO): 1.0
- MFI ([2]; Tadalafil 0.14 μM): 12331
- Stabilization ratio with Tadalafil ([2]; Tadalafil 0.41 μM vs DMSO): 1.1
- MFI ([2]; Tadalafil 0.41 μM): 13422
- Stabilization ratio with Tadalafil ([2]; Tadalafil 1.23 μM vs DMSO): 1.3
- MFI ([2]; Tadalafil 1.23 μM): 16255
- Stabilization ratio with Tadalafil ([2]; Tadalafil 3.7 μM vs DMSO): 2.0
- MFI ([2]; Tadalafil 3.7 μM): 24201
- Stabilization ratio with Tadalafil ([2]; Tadalafil 11.11 μM vs DMSO): 3.5
- MFI ([2]; Tadalafil 11.11 μM): 42644
- Stabilization ratio with Tadalafil ([2]; Tadalafil 33.33 μM vs DMSO): 6.6
- MFI ([2]; Tadalafil 33.33 μM): 80088
- Stabilization ratio with Tadalafil ([2]; Tadalafil 100 μM vs DMSO): 8.6
- MFI ([2]; Tadalafil 100 μM): 104032
- MFI ([3]; DMSO (no Sildenafil)): 13747
- Stabilization ratio with Sildenafil ([3]; Sildenafil 0.01 μM vs DMSO): 0.9
- MFI ([3]; Sildenafil 0.01 μM): 12801
- Stabilization ratio with Sildenafil ([3]; Sildenafil 0.02 μM vs DMSO): 1.0
- MFI ([3]; Sildenafil 0.02 μM): 14045
- Stabilization ratio with Sildenafil ([3]; Sildenafil 0.05 μM vs DMSO): 1.0
- MFI ([3]; Sildenafil 0.05 μM): 13801
- Stabilization ratio with Sildenafil ([3]; Sildenafil 0.14 μM vs DMSO): 1.0
- MFI ([3]; Sildenafil 0.14 μM): 14048
- Stabilization ratio with Sildenafil ([3]; Sildenafil 0.41 μM vs DMSO): 1.2
- MFI ([3]; Sildenafil 0.41 μM): 16175
- Stabilization ratio with Sildenafil ([3]; Sildenafil 1.23 μM vs DMSO): 1.5
- MFI ([3]; Sildenafil 1.23 μM): 20410
- Stabilization ratio with Sildenafil ([3]; Sildenafil 3.70 μM vs DMSO): 2.2
- MFI ([3]; Sildenafil 3.70 μM): 30372
- Stabilization ratio with Sildenafil ([3]; Sildenafil 11.11 μM vs DMSO): 4.3
- MFI ([3]; Sildenafil 11.11 μM): 59723
- Stabilization ratio with Sildenafil ([3]; Sildenafil 33.33 μM vs DMSO): 7.2
- MFI ([3]; Sildenafil 33.33 μM): 99558
- Stabilization ratio with Sildenafil ([3]; Sildenafil 100.00 μM vs DMSO): 8.6
- MFI ([3]; Sildenafil 100.00 μM): 117792
- Basal expression ([3]; Table 26, MFI with DMSO / parental HCT116, Sildenafil experiment): 10.7
